This note sets out measurements from patent publication US20230058623A1, “NOVEL HETEROARYL-TRIAZOLE COMPOUNDS AS PESTICIDES” (Bayer Aktiengesellschaft, priority 2019, published 2023).

Common to all, as to type: in vivo
The test system of assay [1] is Rhipicephalus (Boophilus) microplus larvae (strain Parkhurst, resistant against synthetic pyrethroids). Description: Rhipicephalus (Boophilus) microplus in-vitro contact test, larval cattle tick. The settings on record: after 48 hours, read-out: activity (efficacy: larvae dead or moribund); for pest or weed control at 1 µg/cm2, 100 g/ha: application rate 1 μg/cm^2 (=100 g/ha); for pest or weed control at 5 µg/cm2, 500 g/ha: application rate 5 μg/cm^2 (=500 g/ha). An outline of the steps: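 Pyrethroid-resistant Parkhurst larvae, 20–50 per tube, were kept 48 h at 27 °C and 85% relative humidity in glass tubes whose inner walls carried a dried acetone film of compound (900 ppm giving 5 μg/cm^2). Dead or moribund larvae, judged by loss of negative geotactic behavior, set percent efficacy.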

For assay [2], the system named is brown planthopper (Nilaparvata lugens). Description: Nilaparvata lugens spray test. The settings on record: 96 h, after 4 days, rice plants; for mortality at 500 g/ha: application rate 500 g/ha. The method, then:
Nilaparvata lugens—Spray Test
To produce a suitable preparation of active compound, 1 part by weight of active compound is mixed with the stated amount of solvents and is diluted with water, containing an emulsifier concentration of 1000 ppm, to the desired concentration. Further test concentrations are prepared by dilution with emulsifier containing water.
Rice plants (Oryza sativa) are sprayed with a preparation of the active ingredient of the desired concentration and the plants are infested with the brown planthopper (Nilaparvata lugens).
After 4 days mortality in % is determined. 100% means all planthoppers have been killed and 0% means none of the planthoppers have been killed.

The test system of assay [3] is fall armyworm larvae (Spodoptera frugiperda). In words: Spodoptera frugiperda spray test. The settings on record: 168 h, application rate 100 g/ha, after 7 days, maize leaf sections. An outline of the steps: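 Seven-day percent mortality of larvae feeding on Zea mays leaf sections sprayed with test compound. Dilutions were made in water holding 1000 ppm emulsifier.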

For assay [4], the system named is adult cat fleas (Ctenocephalides felis). Description: Ctenocephalides felis in-vitro contact test, adult cat flea. The settings on record: application rate 5 μg/cm^2 (=500 g/ha), after 48 hours, read-out: activity (efficacy: fleas dead or moribund). The method, boiled down:
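After 48 h of room-temperature exposure in tubes whose walls carried dried compound residue (5 μg/cm^2, from 900 ppm acetone solution), adult cat fleas (5-10 per tube) were heat-challenged at 45-50° C up to 5 min. Fleas unable to climb away were counted dead or moribund, expressed as % efficacy.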

Assay [5] deals with adult flies Musca domestica strain WHO-N. In words: Musca domestica test (MUSCDO surface treatment & contact assay). The settings on record: 24 hours after contact, read-out: efficacy (mortality); for mortality at 20 mg/m2: surface concentration 20 mg/m^2, exposure 30 minutes. The method, then: Musca domestica Test (MUSCDO Surface Treatment & Contact Assay)
Solvent: Aceton+2000 ppm rapeseed oil methyl ester (RME)
In order to produce a sufficient, active ingredient containing solution it is necessary to solve the test compound in the solvent-mix (acetone at 2 mg/ml/RME 2000 ppm). This solution is pipetted onto a glazed tile and after evaporation of the acetone, adult flies of the species Musca domestica strain WHO-N are placed onto the dried surface. The exposure time is 30 minutes.
Mortality in percent (%) is determined 24 hours after contact of the insects to the treated surface. 100% mortality means that all tested insects are dead, whereas 0% means that no insect died.

For assay [6], the system named is larvae of the banded cucumber beetle (Diabrotica balteata). Description: Diabrotica balteata spray test. The settings on record: 168 h, application rate 100 g/ha (=32 μg/well), after 7 days, wheat seeds, read-out: activity (efficacy: seedlings grown). An outline of the steps:
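Efficacy (%) read 7 days after infesting treated seedlings with 10-20 banded cucumber beetle larvae, 100% meaning growth as in uninfected untreated control and 0% no growth. Test solutions in water containing 1000 ppm emulsifier were sprayed onto wheat seeds germinated for 1 day on agar.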

Assay [7] concerns adult brown dog ticks (Rhipicephalus sanguineus). In words: Rhipicephalus sanguineus in-vitro contact test, adult brown dog ticks. The settings on record: application rate 5 μg/cm^2 (=500 g/ha), after 48 hours, read-out: activity (efficacy: ticks dead or moribund). The method, boiled down:
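Contact exposure: dried compound film inside glass tubes, dose 5 μg/cm^2 at 900 ppm, 5-10 adults per tube at room temperature. Scored at 48 h via a heat-escape test on a 45-50° C plate for up to 5 min.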

In assay [8] the test system is larvae of the southern green stink bug (Nezara viridula). Description: Nezara viridula spray test. The settings on record: 96 h, after 4 days, barley plants; for mortality at 500 g/ha: application rate 500 g/ha, read-out: activity (mortality). The method, boiled down: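 Barley plants sprayed with the active compound in emulsifier-containing water, then infested with stink bug larvae. Mortality scored in % after 4 days, with 100% meaning all insects killed.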

Assay [9] deals with green peach aphid (Myzus persicae). In words: Myzus persicae oral test. The settings on record: 120 h, read-out: activity (mortality). The method, boiled down:
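Five-day oral feeding assay measuring percent mortality of a mixed aphid population that draws compound-containing sugared IPL41 medium through sealing parafilm; the test preparation derives from 1 part compound per 100 parts acetone, diluted with water.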

The test system is the same in assay [10]. In words: Myzus persicae spray test. The settings on record: foliar, 120 h, application rate 100 g/ha, after 5 days, Chinese cabbage leaf disks, read-out: activity (mortality). The method, boiled down:
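Percent kill was recorded 5 days after spraying. Test solutions, prepared with solvent and diluted in 1000 ppm emulsifier water, were applied to Brassica pekinensis leaf disks carrying mixed-instar green peach aphids.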

Assay [11] relates to adult mosquitoes Aedes aegypti strain MONHEIM. Description: Aedes aegypti test (AEDSAE surface treatment & contact assay). The settings on record: 24 hours after contact, read-out: efficacy (mortality); for mortality at 20 mg/m2: surface concentration 20 mg/m^2, exposure 30 minutes. The method, boiled down:
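Compound in acetone (2 mg/ml) with 2000 ppm RME dried onto glazed tile; adults exposed to the treated surface for 30 min. Percent mortality scored 24 h after contact.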

[12] abbreviates: surface concentration 4 mg/m^2, exposure 30 minutes.

With `C[C@H](NC(=O)c1cc(C(F)(F)F)cc(C(F)(F)F)c1)c1ncnn1-c1ccc(C(=O)N2CC(C)(C)OC(C)(C)C2)cn1` [Example I-77], in [1], the pest or weed control at 1 µg/cm2, 100 g/ha is 100%. For the same compound, the pest or weed control at 5 µg/cm2, 500 g/ha in [1] is 100%; in assay [7], 80%. Moreover, the mortality at 500 g/ha in assay [2] and in assay [8] was 100% each time. In assay [3], this compound returned a mortality at 100 g/ha of 100%. In assay [4], the pest or weed control at 5 µg/cm2 turned out to be 100%. In addition, the mortality at 20 mg/m2 in assay [5] fell in the range of 80 to 100%. For the same compound, the pest or weed control at 32 µg/disc, 100 g/ha in [6] came to 100%.
For the compound `C[C@H](NC(=O)c1cc(C(F)(F)F)cc(S(C)(=O)=O)c1)c1ncnn1-c1ccc(C(=O)N2CCOCC2)cn1` [Example I-102], the mortality at 4 ppm in [9] turned out to be 100%. The mortality at 100 g/ha in [2] (application rate 100 g/ha) worked out at 90%; in assay [3] it was 100%; in assay [10], 90%; in assay [8] (application rate 100 g/ha) it was 100%. For the same compound, in assay [4], the pest or weed control at 5 µg/cm2 came out at 80%. The mortality at 4 mg/m2 in assay [11] (setting [12]) was 80 to 100%. In addition, the mortality at 20 mg/m2 in assay [11] fell in the range of 80 to 100%. Further, the pest or weed control at 32 µg/disc, 100 g/ha in assay [6] was 100%.
Turning to `CCc1nc([C@H](C)NC(=O)c2cc(C(F)(F)F)cc(C(F)(F)F)c2)n(-c2ccc(C(=O)N3C[C@@H](C)O[C@@H](C)C3)cn2)n1` [Example I-130], the pest or weed control at 1 µg/cm2, 100 g/ha in assay [1] was 100%. Besides, the pest or weed control at 5 µg/cm2, 500 g/ha in assay [1] and in assay [7] was 100% in each case. For the same compound, the mortality at 500 g/ha in assay [2] and in assay [8] was 100% in each case. For the same compound, the mortality at 100 g/ha stood at 100% in assay [3] and 90% in assay [10]. Besides, the pest or weed control at 5 µg/cm2 in assay [4] stood at 100%. In [5] (setting [12]), the mortality at 4 mg/m2 was 80 to 100%. The mortality at 20 mg/m2 in assay [5] lay within 80 to 100%. Also, the pest or weed control at 32 µg/disc, 100 g/ha in [6] worked out at 100%.
With `CCc1nc([C@H](C)NC(=O)c2cc(C(F)(F)F)cc(C(F)(F)F)c2)n(-c2ccc(C(=O)N3CCOCC3)cn2)n1` [Example I-131], the pest or weed control at 1 µg/cm2, 100 g/ha in assay [1] worked out at 100%. Besides, the pest or weed control at 5 µg/cm2, 500 g/ha in assay [1] and in assay [7] was 100% each time. Also, the mortality at 500 g/ha in assay [2] and in [8] was 100% in each case. Moreover, the mortality at 100 g/ha in assay [3] stood at 100%; in [10], 90%. The pest or weed control at 5 µg/cm2 in [4] turned out to be 100%. Also, the mortality at 20 mg/m2 in assay [11] and in assay [5] was 80 to 100% in each case. In addition, the pest or weed control at 32 µg/disc, 100 g/ha in assay [6] worked out at 100%.
As for `Cc1nc([C@H](C)NC(=O)c2cc(C(F)(F)F)cc(C(F)(F)F)c2)n(-c2cnc(C(=O)N3C[C@@H](C)O[C@@H](C)C3)cn2)n1` [Example I-138], in assay [1], the pest or weed control at 1 µg/cm2, 100 g/ha came to 100%. The pest or weed control at 5 µg/cm2, 500 g/ha in [1] and in assay [7] was 100% in each case. The mortality at 500 g/ha in [2] and in [8] was 100% throughout. Further, the figures for the mortality at 100 g/ha in assay [3] and in [10] were 100% and 90%, respectively. In addition, the pest or weed control at 5 µg/cm2 in assay [4] came to 100%. Besides, the mortality at 20 mg/m2 in [5] was in the range of 80 to 100%. The pest or weed control at 32 µg/disc, 100 g/ha in [6] was found to be 100%.
